Reference: patent US4923963A, “Bradykinin antagonist peptides” (Nova Technology Limited Partnership, priority 1987, dated 1990)
Like-named read-outs stand apart in the source and are kept apart here. Square brackets hold non-standard residues; d marks the D form. Peptide text beside a SMILES is read from it. dPhe(4-Cl) = N[C@H](Cc1ccc(Cl)cc1)C(=O)O; dPhe(4-F) = N[C@H](Cc1ccc(F)cc1)C(=O)O; d2Nal = N[C@H](Cc1ccc2ccccc2c1)C(=O)O; Hyp = O=C(O)[C@@H]1C[C@@H](O)CN1; 2Thi = N[C@@H](Cc1cccs1)C(=O)O; d2Thi = N[C@H](Cc1cccs1)C(=O)O

Assays:
[1] = system: isolated guinea pig ileum; format: cell-based; design: pA2 /GPI: activity class: scale not given here; conditions: isolated guinea pig ileum; not quantitated
Protocol: (§1) The bradykinin antagonists were assayed on isolated rat uterus in natural or induced estrus and on guinea pig ileum, according to the commonly accepted assay methods for bradykinin and related kinins as described by Trautschold (Handbook of Expt. Pharmacol. Vol 25, Springer Verlag, pp. 53-55, 1970) for inhibition of the myotropic activity of bradykinin. The inhibition potencies, as determined according to the commonly accepted manner described by Schild for antagonists of biologically active compounds (Br. J. Pharmacol. 2:189, 1947), and expressed as pA2 values are determined on isolated rat uterus (RUT) and isolated guinea pig ileum (GPI). In the assays, a dose-response curve is determined for the reference substance bradykinin. The dose of bradykinin which produced a half maximal contraction of tissue is the ED50 dose. An amount of bradykinin equivalent to twice the ED50 dose is administered to the tissue 30 seconds after the start of incubation of the tissue with a dose of antagonist. Doses of antagonist are increased in this protocol until pre-incubation with a dose of antagonist reduces the contraction in response to the double ED50 dose of bradykinin to response of a single ED50 dose of bradykinin. The pA2 value represents the negative logarithm of the molar concentration of antagonist necessary to reduce the response of a double ED50 dose of bradykinin to that of an ED50 dose. One unit of pA2 value represents an order of magnitude change in potency. For comparison, the negative log of the dose of BK, the dose which causes half maximal contraction of the tissues, is commonly known as the pD2 value. The pD2 value for bradykinin is 7.9 on the rat uterus and 7.4 on the guinea pig ileum.

[2] = system: isolated rat uterus; format: cell-based
Protocol: as §1

[3] = system: rat blood pressure; assay: effects on blood pressure in the anesthetized rat (RBP), intraaortic and intravenous bolus; format: in vivo; design: RBP-IA: activity class / RBP-IV: activity class: scale not given here
Protocol: The in vivo effects of bradykinin antagonists on blood pressure in the anesthetized rat are determined according to the assay described by Roblero, Ryan and Stewart (Res. Commun. Pathol. Pharmacol. 6:207, 1973). The antagonists also produce inhibition of the bradykinin response when injected as a bolus admixture of bradykinin plus antagonist by either the ia or iv route of administration.

[4] = rat blood pressure, intraaortic bolus
[5] = rat blood pressure, intravenous bolus

SMILES: N=C(N)NCCC[C@H](NC(=O)[C@H](Cc1cccs1)NC(=O)[C@@H](Cc1ccccc1)NC(=O)[C@H](CO)NC(=O)[C@H](Cc1cccs1)NC(=O)CNC(=O)[C@@H]1CCCN1C(=O)[C@@H]1CCCN1C(=O)[C@@H](Cc1ccc2ccccc2c1)NC(=O)[C@H](CCCCN)NC(=O)[C@@H](N)CCCCN)C(=O)O [Example 24, Lys-Lys-DNal-Pro-Pro-Gly-Thi-Ser-DPhe-Thi-Arg] (H-KK[d2Nal]PPG[2Thi]S[dF][2Thi]R-OH)
- pA2 /GPI: activity class [1]: 0

SMILES: N=C(N)NCCC[C@H](NC(=O)[C@H](Cc1ccccc1)NC(=O)[C@@H](Cc1ccccc1)NC(=O)[C@H](CO)NC(=O)[C@H](Cc1ccccc1)NC(=O)CNC(=O)[C@@H]1C[C@@H](O)CN1C(=O)[C@@H]1CCCN1C(=O)[C@H](N)Cc1ccc(Cl)cc1)C(=O)O [Example 3, CDF-Pro-Hyp-Gly-Phe-Ser-DPhe-Phe-Arg] (H-[dPhe(4-Cl)]P[Hyp]GFS[dF]FR-OH)
- pA2 /GPI: activity class [1]: 0

SMILES: N=C(N)NCCC[C@H](NC(=O)[C@H](Cc1ccccc1)NC(=O)[C@@H](Cc1ccccc1)NC(=O)[C@H](CO)NC(=O)[C@H](Cc1ccccc1)NC(=O)CNC(=O)[C@@H]1C[C@@H](O)CN1C(=O)[C@@H]1CCCN1C(=O)[C@H](N)Cc1ccc(F)cc1)C(=O)O [Example 11, FDF-Pro-Hyp-Gly-Phe-Ser-DPhe-Phe-Arg] (H-[dPhe(4-F)]P[Hyp]GFS[dF]FR-OH)
- pA2 /GPI: activity class [1]: 0

SMILES: N=C(N)NCCC[C@@H](N)C(=O)N[C@H](Cc1ccc(Cl)cc1)C(=O)N1CCC[C@H]1C(=O)N1CCC[C@H]1C(=O)NCC(=O)N[C@@H](Cc1ccccc1)C(=O)N[C@@H](CO)C(=O)N[C@H](Cc1cccs1)C(=O)N[C@@H](Cc1ccccc1)C(=O)N[C@@H](CCCNC(=N)N)C(=O)O [Example 7, DArg-CDF-Pro-Pro-Gly-Phe-Ser-DThi-Phe-Arg] (H-[dR][dPhe(4-Cl)]PPGFS[d2Thi]FR-OH)
- pA2 /RUT: activity class ([2]; isolated rat uterus, not quantitated): 0
- RBP-IA: activity class [3, 4]: 0
- RBP-IV: activity class [3, 5]: 0

SMILES: N=C(N)NCCC[C@H](N)C(=O)N1CCC[C@H]1C(=O)N1CCC[C@H]1C(=O)NCC(=O)N[C@@H](Cc1cccs1)C(=O)N[C@@H](CO)C(=O)N[C@H](Cc1ccccc1)C(=O)N[C@@H](Cc1cccs1)C(=O)N[C@H](CCCNC(=N)N)C(N)=O [Example 55, Arg-Pro-Pro-Gly-Thi-Ser-DPhe-Thi-DArg-NH2] (H-RPPG[2Thi]S[dF][2Thi][dR]-NH2)
- pA2 /RUT: agonist potency as percent of BK potency [2]: 0.01%
- % DESTR (metabolic breakdown of BK-like agonists in RBP assay) ([3]; rat, in vivo): 61%
- RBP-IA: agonist potency as percent of BK potency ([3]; rat, in vivo): 0.1%
- RBP-IV: agonist potency as percent of BK potency ([3]; rat, in vivo, iv): 0.9%

SMILES: CC[C@H](C)[C@H](NC(=O)[C@H](CCCNC(=N)N)NC(=O)[C@H](Cc1ccccc1)NC(=O)[C@@H](Cc1ccccc1)NC(=O)[C@H](CO)NC(=O)[C@H](Cc1ccccc1)NC(=O)CNC(=O)[C@@H]1CCCN1C(=O)[C@@H]1CCCN1C(=O)[C@@H](N)CCCNC(=N)N)C(=O)N[C@@H](Cc1ccc(O)cc1)C(=O)O [Example 63, Arg-Pro-Pro-Gly-Phe-Ser-DPhe-Phe-Arg-Ile-Tyr] (H-RPPGFS[dF]FRIY-OH)
- pA2 /RUT: agonist potency as percent of BK potency ([2]; isolated rat uterus): 0.6%
- RBP-IA: agonist potency as percent of BK potency [3, 4]: 0.2%
- RBP-IV: agonist potency as percent of BK potency [3, 5]: 2%
- % DESTR (metabolic breakdown of BK-like agonists in RBP assay) ([3]; relative to BK = 100%): 70%

SMILES: CC[C@H](C)[C@H](NC(=O)[C@H](CCCNC(=N)N)NC(=O)[C@H](Cc1cccs1)NC(=O)[C@@H](Cc1ccccc1)NC(=O)[C@H](CO)NC(=O)[C@H](Cc1cccs1)NC(=O)CNC(=O)[C@@H]1CCCN1C(=O)[C@@H]1CCCN1C(=O)[C@@H](N)CCCNC(=N)N)C(=O)N[C@@H](Cc1ccc(O)cc1)C(=O)O [Example 65, Arg-Pro-Pro-Gly-Thi-Ser-DPhe-Thi-Arg-Ile-Tyr] (H-RPPG[2Thi]S[dF][2Thi]RIY-OH)
- pA2 /RUT: agonist potency as percent of BK potency ([2]; isolated rat uterus): 0.5%
- RBP-IA: agonist potency as percent of BK potency [3, 4]: 0.06%
- RBP-IV: agonist potency as percent of BK potency [3, 5]: 6%
- % DESTR (metabolic breakdown of BK-like agonists in RBP assay) ([3]; relative to BK = 100%): 0%
